Experimental data: patent publication EP4382907A1, “METHOD FOR PREDICTING A PATIENT-SPECIFIC RESPONSE TO THE FLOT CHEMOTHERAPY SCHEME” (Technische Universität Dresden, priority 2022, dated 2024)
Entries after “also recorded” stand apart in the source; their conditions may differ. Like-named read-outs stand apart in the source and are kept apart here. Values belong to the molecule of their own block, whether it stands above or below them.

Test system: Zellen eines ösophago-gastralen Karzinoms oder eines Magenkarzinoms
Assay: Cell viability dose-response of single FLOT components on in vitro cultured patient tumour cells (Presto Blue)
Assay type: cell-based
Description: Die Konzentration der mindestens einen Komponente der Testzusammensetzung kann auf Basis von empirisch ermittelten Werten festgelegt werden. Zur empirischen Bestimmung von geeigneten Komponentenkonzentrationen für die Testzusammensetzung werden zunächst Zellen eines ösophago-gastralen Karzinoms, insbesondere eines Magenkarzinoms, von mehreren Patienten entnommen und diese Zellen jeweils separat bei physiologischen Bedingungen in vitro kultiviert. Dabei kann die Patientenkultur auf mehrere Vertiefungen einer Zellkulturplatte aufgeteilt werden. Die kultivierten Patientenzellen werden anschließend jeweils mit einer der Komponenten in jeweils vorgegebenen Konzentrationen in Kontakt gebracht und inkubiert. Das heißt, die die Patientenkulturen werden mit den jeweiligen Komponentenkonzentrationen behandelt. Da sich für Leucovorin selbst keine Wirkung auf die Zellen nachweisen lässt, kann Leucovorin als Komponente zur Bestimmung der Komponentenkonzentration ausgenommen werden. Die Behandlung kann in zwei Vorgehensvarianten unterschieden werden. Gemäß einer ersten Variante erfolgt die Behandlung einer Patientenkultur mit den Komponentenkonzentrationen der betreffenden Komponente beginnend mit der niedrigsten Komponentenkonzentration, wobei die Komponentenkonzentration jeweils nach einer vorgegebenen Inkubationszeit schrittweise oder kontinuierlich erhöht wird. Die Zellviabilität wird dabei nach vorgegebenen Inkubationszeiten bestimmt. Gemäß einer zweiten Variante, werden Patientenzellen enthaltene Vertiefungen jeweils mit einer konkreten Konzentration der jeweiligen Komponente behandelt und inkubiert, wobei die Zellviabilitäten nach einer vorgegebenen Inkubationszeit bestimmt werden. Auf diese Weise können mehrere Komponentenkonzentrationen verschiedener Konzentrationen gleichzeitig getestet werden.
Für jede Komponente 5-Fluorouracil, Oxaliplatin und Docetaxel, kann eine patientenspezifische mittlere inhibitorische Konzentration IC50 (IC50F, IC50O, IC50T,) ermittelt werden. Die IC50-Werte geben an, ab welcher Konzentration der Komponenten eine halbmaximale Wachstumshemmung der Patientenzellen erreicht ist. Anschließend wird aus den Werten der ermittelten patientenspezifischen mittleren inhibitorischen Konzentrationen (IC50F, IC50O, IC50T) für jede Komponente (5-Fluorouracil, Oxaliplatin und Docetaxel, (F, O, T)) ein inhibitorischer Konzentrations-Mittelwert (mIC50F, mIC50O, mIC50T) bestimmt. Der inhibitorische Konzentrations-Mittelwert mIC50 ist der Mittelwert aus der Gesamtheit der IC50-Werte einer der Komponenten (F, O, T). […]

Structure (SMILES): Nc1nc2c(c(=O)[nH]1)N(C=O)C(CNc1ccc(C(=O)N[C@@H](CCC(=O)O)C(=O)O)cc1)CN2 (stereo partly shown) [Leucovorin]
Effekt auf die Zellviabilität der Patientenkulturen (single-agent tests): keine Wirkung; also recorded: keinen Effekt

IC50 (cell cultures of 13 patients, same procedure as for 5-FU, read-out: Docetaxelspezifische mittlere halbmaximale inhibitorische Konzentration mIC50T): 0.0012 µM
Structure (SMILES): CC(=O)O[C@@]12CO[C@@H]1C[C@H](O)[C@@]1(C)C(=O)[C@H](O)C3=C(C)[C@@H](OC(=O)[C@H](O)[C@@H](NC(=O)OC(C)(C)C)c4ccccc4)C[C@@](O)([C@@H](OC(=O)c4ccccc4)[C@H]21)C3(C)C [Docetaxel]

Structure (SMILES): O=c1[nH]cc(F)c(=O)[nH]1 [5-FU, 5-Fluorouracil]
IC50 (144 h, read-out: 5-FU-spezifische mittlere halbmaximale inhibitorische Konzentration mIC50F): 10.3 µM

Structure (SMILES): O=C1[O][Pt]2([NH][C@@H]3CCCC[C@H]3[NH]2)[O]C1=O [Oxaliplatin]
IC50 (cell cultures of 13 patients, same procedure as for 5-FU, read-out: Oxaliplatin-spezifische mittlere halbmaximale inhibitorische Konzentration mIC50O): 10.7 µM
